Measurements published in patent US10370356B2, “Pyridinone dicarboxamide for use as bromodomain inhibitors” (GlaxoSmithKline Intellectual Property (No. 2) Limited, priority 2015, dated 2019).
Where a name gives a salt, the structure may show the parent alone. Read-outs that look alike come from different tables or passages of the source.

Molecular target: T1, BRD4 BD2 (Homo sapiens, UniProt O60885, Y97A)
T1 construct: BRD4 (1-477) (Y97A) and (Y390A); made in house; host or cells: E. coli (pET15b vector)
Experiment: BRD4 BD2 mutant TR-FRET competition assay
Type: binding

[1] = read-out: pIC50 in the BRD4 BD2 assay (converted)

IC50 [1] [nM]	IC50 (average of N recorded values, read-out: BRD4 BD2 IC50 (average value) (converted)) [nM]	SMILES
≤ 100	–	CNC(=O)c1cc(C(=O)N[C@H]2[C@@H]3COC[C@@H]32)cn(Cc2cccc(OC)c2)c1=O [Example 72, N5-((1R,5S,6r)-3-Oxabicyclo[3.1.0]hexan-6-yl)-1-(3-methoxybenzyl)-N^3-methyl-2-oxo-1,2-dihydropyridine-3,5-dicarboxamide]
≤ 100	–	CNC(=O)c1cc(C(=O)NCCCC2CCN(C(C)=O)CC2)cn(Cc2cccc3[nH]ccc23)c1=O [Example 74]
≤ 100	–	CNC(=O)c1cc(C(=O)N[C@H]2[C@@H]3CN(C(=O)OC(C)(C)C)C[C@@H]32)cn(Cc2ccccc2)c1=O [Example 75, (1R,5S,6s)-Tert-butyl 6-(1-benzyl-5-(methylcarbamoyl)-6-oxo-1,6-dihydropyridine-3-carboxamido)-3-azabicyclo[3.1.0]hexane-3-carboxylate]
≤ 100	–	CNC(=O)c1cc(C(=O)N[C@H]2[C@@H]3CNC[C@@H]32)cn(Cc2ccccc2)c1=O [Example 76, 1-Benzyl-N^5-((1R,5S,6s)-3-azabicyclo[3.1.0]hexan-6-yl)-N^3-methyl-2-oxo-1,2-dihydropyridine-3,5-dicarboxamide]
100 to 1000	–	CCNC(=O)c1cc(C(=O)NCCCC2CCNCC2)cn(Cc2ccccc2)c1=O [Example 78, 1-benzyl-N^3-ethyl-2-oxo-N^5-(3-(piperidin-4-yl)propyl)-1,2-dihydropyridine-3,5-dicarboxamide]
≤ 100	–	CNC(=O)c1cc(C(=O)N[C@H]2[C@@H]3CN(C(=O)OC(C)(C)C)C[C@@H]32)cn(Cc2cccc3[nH]ccc23)c1=O [Example 79, (1R,5S,6s)-tert-Butyl 6-(1-((1H-indol-4-yl)methyl)-5-(methylcarbamoyl)-6-oxo-1,6-dihydropyridine-3-carboxamido)-3-azabicyclo[3.1.0]hexane-3-carboxylate]
≤ 100	–	CNC(=O)c1cc(C(=O)N[C@H]2[C@@H]3CNC[C@@H]32)cn(Cc2cccc3[nH]ccc23)c1=O [Example 80]
≤ 100	–	CNC(=O)c1cc(C(=O)N[C@H]2[C@@H]3CN(C(C)=O)C[C@@H]32)cn(Cc2cccc3[nH]ccc23)c1=O [Example 81, 1-((1H-Indol-4-yl)methyl)-N^5-((1R,5S,6s)-3-acetyl-3-azabicyclo[3.1.0]hexan-6-yl)-N^3-methyl-2-oxo-1,2-dihydropyridine-3,5-dicarboxamide]
≤ 100	–	CCNC(=O)c1cc(C(=O)NCCC[C@]2(F)CCCNC2)cn(Cc2ccccc2)c1=O [Example 82]
100 to 1000	–	CCNC(=O)c1cc(C(=O)NCC[C@@H]2CNCCO2)cn(Cc2ccccc2)c1=O [Example 83, (R)-1-benzyl-N^3-ethyl-N^5-(2-(morpholin-2-yl)ethyl)-2-oxo-1,2-dihydropyridine-3,5-dicarboxamide]
≤ 100	–	CCNC(=O)c1cc(C(=O)NCCC[C@@H]2CNCCO2)cn(Cc2ccccc2)c1=O [Example 84, (R)-1-benzyl-N^3-ethyl-N^5-(3-(morpholin-2-yl)propyl)-2-oxo-1,2-dihydropyridine-3,5-dicarboxamide]

Continued, compound first:

SMILES	IC50 [1] [nM]	IC50 (average of N recorded values, read-out: BRD4 BD2 IC50 (average value) (converted)) [nM]
CNC(=O)c1cc(C(=O)NCCC2CCCCN2)cn(Cc2ccccc2)c1=O (stereo not shown) [Example 40, 1-Benzyl-N^3-methyl-2-oxo-N^5-(2-(piperidin-2-yl)ethyl)-1,2-dihydropyridine-3,5-dicarboxamide hydrochloride]	100 to 1000	–
CNC(=O)c1cc(C(=O)NC2CCCS(=O)(=O)C2)cn(Cc2ccccc2)c1=O (stereo not shown) [Example 42, 1-Benzyl-N^5-(1,1-dioxidotetrahydro-2H-thiopyran-3-yl)-N^3-methyl-2-oxo-1,2-dihdyropyridine-3,5-dicarboxamide]	1000 to 100000	–
CNC(=O)c1cc(C(=O)NC2CCS(=O)(=O)C2)cn(Cc2ccccc2)c1=O (stereo not shown) [Example 43, 1-Benzyl-N^5-(1,1-dioxidotetrahydrothiophen-3-yl)-N^3-methyl-2-oxo-1,2-dihydroypridine-3,5-dicarboxamide]	100 to 1000	–
CNC(=O)c1cc(C(=O)NC2CCS(=O)(=O)CC2)cn(Cc2ccccc2)c1=O [Example 44, 1-Benzyl-N^5-(1,1-dioxidotetrahydro-2H-thiopyran-4-yl)-N^3-methyl-2-oxo-1,2-dihydropyridine-3,5-dicarboxamide]	100 to 1000	–
CNC(=O)c1cc(C(=O)NCCCN2CCCCC2)cn(Cc2ccccc2)c1=O [Example 45, 1-Benzyl-N^3-methyl-2-oxo-N^5-(3-(piperidin-1-yl)propyl)-1,2-dihydropyridine-3,5-dicarboxamide hydrochloride]	100 to 1000	–
CNC(=O)c1cc(C(=O)NC[C@H]2CCCOC2)cn(Cc2ccccc2)c1=O [Example 46, (R)-1-Benzyl-N^3-methyl-2-oxo-N^5-((tetrahydro-2H-pyran-3-yl)methyl)-1,2-dihydropyridine-3,5-dicarboxamide]	100 to 1000	–
CNC(=O)c1cc(C(=O)NC[C@@H]2CCCOC2)cn(Cc2ccccc2)c1=O [Example 47, (S)-1-Benzyl-N^3-methyl-2-oxo-N^5-((tetrahydro-2H-pyran-3-yl)methyl)-1,2-dihydropyridine-3,5-dicarboxamide]	100 to 1000	–
CNC(=O)c1cc(C(=O)NCC2CCS(=O)(=O)C2)cn(Cc2ccccc2)c1=O (stereo not shown) [Example 48, 1-Benzyl-N^5-((1,1-dioxidotetrahydrothiophen-3-yl)methyl)-N^3-methyl-2-oxo-1,2-dihydropyridine-3,5-dicarboxamide]	1000 to 100000	–
CNC(=O)c1cc(C(=O)NCC2CCOCC2)cn(Cc2ccccc2)c1=O [Example 49, 1-Benzyl-N^3-methyl-2-oxo-N^5-((tetrahydro-2H-pyran-4-yl)methyl)-1,2-dihydroopyridine-3,5-dicarboxamide]	100 to 1000	–
CNC(=O)c1cc(C(=O)NC2CCCOC2)cn(Cc2ccccc2)c1=O (stereo not shown) [Example 50, 1-Benzyl-N^3-methyl-2-oxo-N^5-(tetrahydro-2H-pyran-3-yl)-1,2-dihdyropyridine-3,5-dicarboxamide]	100 to 1000	–
CNC(=O)c1cc(C(=O)NCCCN2CCN(C)CC2)cn(Cc2ccccc2)c1=O [Example 51, 1-Benzyl-N^3-methyl-N^5-(3-(4-methylpiperazin-1-yl)propyl)-2-oxo-1,2-dihydropyridine-3,5-dicarboxamide]	100 to 1000	–
CNC(=O)c1cc(C(=O)NCCCN2CCS(=O)(=O)CC2)cn(Cc2ccccc2)c1=O [Example 52, 1-Benzyl-N^5-(3-(1,1-dioxidothiomorpholino)propyl)-N^3-methyl-2-oxo-1,2-dihydropyridine-3,5-dicarboxamide]	100 to 1000	–
CNC(=O)c1cc(C(=O)NCC2CCS(=O)(=O)CC2)cn(Cc2ccccc2)c1=O [Example 53, 1-Benzyl-N^5-((1,1-dioxidotetrahydro-2H-thiopyran-4-yl)methyl)-N^3-methyl-2-oxo-1,2-dihydropyridine-3,5-dicarboxamide]	1000 to 100000	–
CNC(=O)c1cc(C(=O)NCCC2CCNCC2)cn(Cc2cccc3[nH]ccc23)c1=O [Example 56, 1-((1H-Indol-4-yl)methyl)-N^3-methyl-2-oxo-N5-(2-(piperidin-4-yl)ethyl)-1,2-dihydropyridine-3,5-dicarboxamide]	≤ 100	15.8
CNC(=O)c1cc(C(=O)NCCCC2(O)CCNCC2)cn(Cc2ccccc2)c1=O [Example 57, 1-Benzyl-N^5-(3-(4-hydroxypiperidin-4-yl)propyl)-N^3-methyl-2-oxo-1,2-dihydropyridine-3,5-dicarboxamide]	≤ 100	–
CNC(=O)c1cc(C(=O)NCCCC2CCCN(C(=O)OC(C)(C)C)C2)cn(Cc2ccccc2)c1=O (stereo not shown) [Example 59, tert-Butyl 3-(3-(1-benzyl-5-(methylcarbamoyl)-6-oxo-1,6-dihydropyridine-3-carboxamido)propyl)piperidine-1-carboxylate]	100 to 1000	–
CNC(=O)c1cc(C(=O)NCCCC2(F)CCNCC2)cn(Cc2ccccc2)c1=O [Example 61, 1-Benzyl-N^5-(3-(4-fluoropiperidin-4-yl)propyl)-N^3-methyl-2-oxo-1,2-dihydropyridine-3,5-dicarboxamide hydrochloride]	≤ 100	–
CNC(=O)c1cc(C(=O)NCCC2CN(C)CCO2)cn(Cc2ccccc2)c1=O (stereo not shown) [Example 64, 1-benzyl-N^3-methyl-N^5-(2-(4-methylmorpholin-2-yl)ethyl)-2-oxo-1,2-dihydropyridine-3,5-dicarboxamide]	100 to 1000	–
CNC(=O)c1cc(C(=O)NCCC2CN(C(C)=O)CCO2)cn(Cc2ccccc2)c1=O (stereo not shown) [Example 65, N^5-(2-(4-acetylmorpholin-2-yl)ethyl)-1-benzyl-N^3-methyl-2-oxo-1,2-dihydropyridine-3,5-dicarboxamide]	100 to 1000	–
CNC(=O)c1cc(C(=O)NCCC2CNCCO2)cn(Cc2ccccc2)c1=O (stereo not shown) [Example 66, 1-benzyl-N^3-methyl-N^5-(2-(morpholin-2-yl)ethyl)-2-oxo-1,2-dihydropyridine-3,5-dicarboxamide hydrochloride]	100 to 1000	–
CNC(=O)c1cc(C(=O)NCCOC2CCNC2)cn(Cc2ccccc2)c1=O (stereo not shown) [Example 67, 1-benzyl-N3-methyl-2-oxo-N5-(2-(pyrrolidin-3-yloxy)ethyl)-1,2-dihydropyridine-3,5-dicarboxamide, hydrochloride]	100 to 1000	–
CNC(=O)c1cc(C(=O)NCCOC2CCCNC2)cn(Cc2ccccc2)c1=O (stereo not shown) [Example 68, 1-benzyl-N^3-methyl-2-oxo-N^5-(2-(piperidin-3-yloxy)ethyl)-1,2-dihydropyridine-3,5-dicarboxamide]	100 to 1000	–
CNC(=O)c1cc(C(=O)N[C@H]2[C@@H]3COC[C@@H]32)cn(Cc2ccccc2)c1=O [Example 69, 1-Benzyl-N^5-((1R,5S,6r)-3-oxabicyclo[3.1.0]hexan-6-yl)-N^3-methyl-2-oxo-1,2-dihydropyridine-3,5-dicarboxamide]	≤ 100	–
CNC(=O)c1cc(C(=O)NCCCC2CCCN(C)C2)cn(Cc2ccccc2)c1=O (stereo not shown) [Example 70, 1-Benzyl-N^3-methyl-N^5-(3-(1-methylpiperidin-3-yl)propyl)-2-oxo-1,2-dihydropyridine-3,5-dicarboxamide]	≤ 100	–
CNC(=O)c1cc(C(=O)NCCCC2CCCN(CCF)C2)cn(Cc2ccccc2)c1=O (stereo not shown) [Example 71]	≤ 100	–
